Laboratory results published in US20110230472A1, “RING-FUSED AZOLE DERIVATIVE HAVING PI3K-INHIBITING ACTIVITY” (Shionogi & Co., Ltd., priority 2008, published 2011).
pIC50, pKi: −log10 of the molar value.

Experiments:
PI-3 kinase γ [1] = molecular target: T1, PI-3 kinase γ (Homo sapiens, UniProt P48736); test: PI3Kγ inhibitory activity (Ki value), HTRF; assay type: biochemical; details: Ki=IC50/(1+10 μM ATP/Km)
Experimental: The PI3Kγ inhibitory activity (Ki value) of a compound was evaluated according to the following procedure:
5 μL of a compound solution containing 10% DMSO and 200 μmol/L of a compound was changed to 5 μL of a compound solution containing 10% DMSO and either 200, 64, 20, 6.4, 2, 0.64, or 0.20 μmol/L of the compound (optionally, this is diluted to a lower concentration). Using a method similar to the method for measuring PI3Kγ inhibitory activity, inhibition ratios were measured in the presence of the compound at 50, 16, 5, 1.6, 0.5, 0.16, and 0.05 μmol/L (optionally, a lower concentration). Then an IC50 value was calculated by a logistic approximation method or the linear regression method using two concentrations that across 50% inhibition. Separately, the ATP concentration in the reaction solution (40 μmol/L ATP, 10 mmol/L MgCl2, 5 mmol/L DTT) at the time of the start of a reaction in the absence of the compound was changed to 80, 40, 20, 10, 5, 2.5, 1.25, or 0.625 μmol/L. Then, HTRF ratios were measured by a similar method. The value obtained by subtracting the HTRF ratio at each ATP concentration from the HTRF ratio in the absence of PI-3 kinase γ was defined as the value obtained by multiplying reaction rate (v) at each ATP concentration with a constant. The Michaelis-Menten constant Km was then calculated by the Lineweaver-Burk plot method. The Ki value of a compound was calculated by the following formula.
Ki=IC50 value/(1+10 μM (test ATP concentration)/Km (μM))

PI-3 kinase γ [2] = molecular target: T1, PI-3 kinase γ; test: PI3Kγ inhibitory activity, PI3-kinase HTRF assay (inhibition ratio); assay type: biochemical; details: 0.5 h; for inhibition at 50 µM: compound at 50 μM
Procedure, shortened: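 PI3Kγ preincubated 10 min with compound and PIP2 substrate (MgCl2, DTT), then ATP added for 30 min at room temperature. PIP3 detected by HTRF (665/620 nm ratio) after 18 h. Inhibition ratio at 50 or 10 μmol/L, normalised to no-compound and no-enzyme controls.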

Solubility test = assay type: physicochemical; details: kinetic from dmso stock; artificial intestinal juice pH 6.8, 1% DMSO, 25° C. for 16 hours
Procedure, shortened: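 Kinetic solubility with 1% DMSO: compound from 10 mmol/L DMSO stock spiked into pH 6.8 phosphate artificial intestinal juice, held 16 h at 25 °C, then suction-filtered. Filtrate diluted twofold in methanol/water (1/1) and quantified by HPLC or LC/MS/MS via absolute calibration.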

Metabolic stability test = assay type: in vitro ADME; details: human liver microsome 0.5 mg protein/mL, 1 mmol/L NADPH, 37° C.
Experimental: After a subject compound was reacted for a certain time using a pooled human liver microsome commercially available, a reacted sample and an unreacted sample are compared to calculate a survival ratio, and then the degree of metabolism in the liver was evaluated.
0.2 mL of a buffer solution (50 mmol/L of Tris-HCl in pH 7.4, 150 mmol/L of potassium chloride, and 10 mmol/L of magnesium chloride) containing a human liver microsome of 0.5 mg protein/mL was reacted in the presence of 1 mmol/L NADPH at 37° C. for 0 or 30 minutes (oxidative reaction). After reacting, 50 μL of the reaction solution was added to 100 μL of a solution of methanol/acetonitrile (1/1 (v/v)), mixed, and then centrifuged at 3000 rpm for 15 minutes. The test compound in the supernatant was quantitated with LC/MS/MS. The amount of the compound at a reaction time of 0 minute was defined as 100% and, based on that, the percentage of the test compound remained after reacting for 30 minutes was calculated.

[3] = molecular target: T2, human ether-a-go-go related gene (hERG) channel (Homo sapiens, UniProt Q12809); test: hERG test, whole-cell patch-clamp; assay type: cell-based; details: HEK293 cell expressing hERG; applied for 10 minutes; concentration not given
T2 construct: expressed in transfected cells; host or cells: HEK293
Excerpt: For the purpose of risk evaluation of QT interval extension of electrocardiogram, the activity on delayed rectification K^+ current (IKr), which plays an important role in a cardiac ventricle repolarization process, was examined using the HEK293 cell that was made to express human ether-a-go-go related gene (hERG) channel.
Using an automatic patch-clamp system (PatchXpress 7000A, Axon Instruments Inc.), by a whole-cell patch-clamp method, after the cell was maintained at a membrane potential of −80 mV, IKr induced upon applying depolarizing stimulation of +50 mV for 2 seconds and further applying repolarizing stimulation of −50 mV for 2 seconds was recorded. After generated electric current became stable, a test substance dissolved at an intended concentration in extracellular fluid (137 mmol/L NaCl, 4 mmol/L KCl, 1.8 mmol/L CaCl2.2H2O, 1 mmol/L MgCl2.6H2O, 10 mmol/L glucose, 10 mmol/L HEPES (4-(2-hydroxyethyl)-1-piperazineethanesulfonic acid), pH=7.4) was applied to the cell for 10 minutes under room temperature condition. From the obtained IKr, the absolute value of the maximum tail current was measured using analysis software (DataXpress ver. 1, Molecular Devices Corporation) and the value of the electric current in a maintained membrane potential as baseline. Moreover, an inhibition ratio for the maximum tail current prior to the application of the test substance was calculated and then compared with a group of media-application (0.1% dimethylsulfoxide solution) to evaluate influence of the test substance on IKr.

CYP3A4 = molecular target: T3, CYP3A4 (Homo sapiens, UniProt P08684); test: CYP inhibition test, pooled human liver microsome, CYP3A4; assay type: in vitro ADME; details: hydroxylation of terfenadine
T3 construct: enzyme: pooled human liver microsome 0.2 mg protein/mL; from tissue; host or cells: pooled human liver microsome
Excerpt: (§1) O-de-ethylation of 7-ethoxyresorufin (CYP1A2), methyl-hydroxylation of tolbutamide (CYP2C9), 4′-hydroxylation of mephenyloin (CYP2C19), O-demethylation of dextromethorphan (CYP2D6), and hydroxylation of terfenadine (CYP3A4), which are typical substrate for metabolic reactions of human main CYP5 molecular species (CYP1A2, 2C9, 2C19, 2D6, and 3A4), were adopted as indexes.
(§2) The reaction conditions are as follows: substrate: 0.5 μmol/L of ethoxyresorufin (CYP1A2), 100 μmol/L of tolbutamide (CYP2C9), […] of S-mephenyloin (CYP2C19), 5 μmol/L of dextromethorphan (CYP2D6), and 1 μmol/L of terfenadine (CYP3A4); reaction time; 15 minutes; reaction temperature: 37° C.; enzyme: pooled human liver microsome 0.2 mg protein/mL; test drug concentration: 1, 5, 10, and 20 μmol/L (4 points).
(§3) In a 96-well plate, as a reaction solution, five kinds of substrates, a human liver microsome, and a test drug were added to 50 mmol/L Hepes buffer solution in the aforementioned ratio. A coenzyme NADPH was added to start a metabolic reaction, which is an index. After reacting at 37° C. for 15 minutes, a solution of methanol/acetonitrile (1/1 (v/v)) was added to quench the reaction. After centrifugation at 3000 rpm for 15 minutes, resorufin (CYP1A2 metabolite) in the supernatant was quantitated with a fluorescence multilabel counter, and hydroxylated tolbutamide (CYP2C9 metabolite), 4′-hydroxylated mephenyloin (CYP2C19 metabolite), […], terfenadine in alcohol form (CYP3A4 metabolite) were quantitated with LC/MS/MS.
(§4) The case wherein only DMSO (a solvent which dissolved a drug) was added to a reaction system was defined as a control (100%). When a test drug solution was added, the remaining activity (%) at each concentration was calculated, and then IC50 was calculated with a concentration and an inhibition ratio by an inverse estimation using a logistic model.

CYP2D6 = molecular target: T4, CYP2D6 (Homo sapiens, UniProt P10635); test: CYP inhibition test, pooled human liver microsome, CYP2D6; assay type: in vitro ADME; details: O-demethylation of dextromethorphan
T4 construct: enzyme: pooled human liver microsome 0.2 mg protein/mL; from tissue; host or cells: pooled human liver microsome
Excerpt: as §1, §2, §3, §4

CYP2C19 = molecular target: T5, CYP2C19 (Homo sapiens, UniProt P33261); test: CYP inhibition test, pooled human liver microsome, CYP2C19; assay type: in vitro ADME; details: 4′-hydroxylation of mephenyloin
T5 construct: enzyme: pooled human liver microsome 0.2 mg protein/mL; from tissue; host or cells: pooled human liver microsome
Excerpt: as §1, §2, §3, §4

CYP1A2 = molecular target: T6, CYP1A2 (Homo sapiens, UniProt P05177); test: CYP inhibition test, pooled human liver microsome, CYP1A2; assay type: in vitro ADME; details: O-de-ethylation of 7-ethoxyresorufin
T6 construct: enzyme: pooled human liver microsome 0.2 mg protein/mL; from tissue; host or cells: pooled human liver microsome
T6 sequence (P05177 1-516): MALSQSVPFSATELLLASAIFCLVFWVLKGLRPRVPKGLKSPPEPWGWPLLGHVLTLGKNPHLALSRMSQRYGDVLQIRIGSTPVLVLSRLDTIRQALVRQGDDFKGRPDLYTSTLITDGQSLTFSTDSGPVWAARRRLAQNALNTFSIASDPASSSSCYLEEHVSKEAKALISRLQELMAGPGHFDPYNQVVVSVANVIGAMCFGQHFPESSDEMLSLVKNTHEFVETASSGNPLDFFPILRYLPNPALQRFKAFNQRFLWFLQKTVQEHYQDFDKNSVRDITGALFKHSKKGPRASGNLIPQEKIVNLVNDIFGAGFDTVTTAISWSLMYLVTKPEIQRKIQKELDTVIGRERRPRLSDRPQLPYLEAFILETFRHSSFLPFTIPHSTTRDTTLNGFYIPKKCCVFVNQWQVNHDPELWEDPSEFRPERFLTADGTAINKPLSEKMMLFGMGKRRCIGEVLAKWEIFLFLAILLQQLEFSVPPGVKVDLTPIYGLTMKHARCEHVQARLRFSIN
Excerpt: as §1, §2, §3, §4

CYP2C9 = molecular target: T7, CYP2C9 (Homo sapiens, UniProt P11712); test: CYP inhibition test, pooled human liver microsome, CYP2C9; assay type: in vitro ADME; details: methyl-hydroxylation of tolbutamide
T7 construct: enzyme: pooled human liver microsome 0.2 mg protein/mL; from tissue; host or cells: pooled human liver microsome
Excerpt: as §1, §2, §3, §4

[4] = tested on: Salmonella typhimurium TA98 line, TA100 line; test: FAT test (mutagenicity); set-up: key: When the mutagenicity is negative, the compound is shown as (−); When positive, the compound is shown as (+); details: TA98 and TA100 lines; non-metabolism-activation and metabolism-activation conditions
Experimental: 20 μL of Salmonella enterica subsp. typhimurium (Salmonella typhimurium TA98 line, TA100 line) cryopreserved was inoculated to 10 mL of liquid nutrient medium (2.5% Oxoid nutrient broth No. 2) and then precultured at 37° C. for 10 hours with shaking. Regarding TA98 line, after 9 mL of a bacterial suspension was centrifuged (2000×g, 10 minutes) to remove the culture solution, the bacteria was suspended in 9 mL of Micro F buffer solution (K2HPO4: 3.5 g/L, KH2PO4: 1 g/L, (NH4)2SO4: 1 g/L, tri-sodium citric acid dihydrate: 0.25 g/L, MgSO4.7H2O: 0.1 g/L), and then added to 110 mL of Exposure media (Micro F buffer solution containing biotin: 8 μg/mL, histidine: 0.2 μg/mL, glucose: 8 mg/mL). Regarding TA 100 line, 120 mL of Exposure media was added to 3.16 mL of the bacterial suspension to prepare a test bacterial suspension. 12 μL of a solution of a test substance in DMSO (diluted eight times in a common ratio of 2 from the maximum dose of 50 mg/mL); 12 μL of DMSO as a negative control; 50 μg/mL 4-nitroquinoline-1-oxide solution in DMSO for TA98 line or 0.25 μg/mL 2-(2-furyl)-3-(5-nitro-2-furyl)acrylamide solution in DMSO as a positive control for TA 100 line in the case of a non-metabolism-activation condition; 12 μL of 40 μg/mL 2-aminoanthracene solution in DMSO for TA98 line or 20 μg/mL of 2-aminoanthracene solution in DMSO for TA100 line in the case of a metabolism-activation condition; were each mixed with 588 μL of the test bacterial suspension (in the case of a metabolism activation condition, a mixed solution of 498 μL of the test bacterial suspension and 90 μL S9 mix) and then cultured at 37° C. at 90 minutes with shaking. 460 μL of the bacterial suspension to which a test substance was exposed was mixed with 230 μL of Indicator media (a Micro F buffer solution containing 8 μg/mL biotin, 0.2 μg/mL histidine, 8 mg/mL glucose, and 37.5 μg/mL bromocresol purple). 50 μL thereof was dispensed to microplate 48 wells/dose and then statically cultured at 37° C. for 3 days. In a well containing bacteria which obtained proliferation potency by mutation of the amino acid (histidine) synthetase gene, the change of pH caused the color change from purple to yellow. Thus, in 48 wells per dose, the number of the bacteria-proliferation wells in which the color changed to yellow was counted, compared with a group of negative controls, and then evaluated. When the mutagenicity is negative, the compound is shown as (−). When positive, the compound is shown as (+).
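Wherever percentage of the test compound remained after reacting for 30 minutes is given: 100% equals the compound amount at 0 min reaction.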

T1 sequence (P48736 whole entry): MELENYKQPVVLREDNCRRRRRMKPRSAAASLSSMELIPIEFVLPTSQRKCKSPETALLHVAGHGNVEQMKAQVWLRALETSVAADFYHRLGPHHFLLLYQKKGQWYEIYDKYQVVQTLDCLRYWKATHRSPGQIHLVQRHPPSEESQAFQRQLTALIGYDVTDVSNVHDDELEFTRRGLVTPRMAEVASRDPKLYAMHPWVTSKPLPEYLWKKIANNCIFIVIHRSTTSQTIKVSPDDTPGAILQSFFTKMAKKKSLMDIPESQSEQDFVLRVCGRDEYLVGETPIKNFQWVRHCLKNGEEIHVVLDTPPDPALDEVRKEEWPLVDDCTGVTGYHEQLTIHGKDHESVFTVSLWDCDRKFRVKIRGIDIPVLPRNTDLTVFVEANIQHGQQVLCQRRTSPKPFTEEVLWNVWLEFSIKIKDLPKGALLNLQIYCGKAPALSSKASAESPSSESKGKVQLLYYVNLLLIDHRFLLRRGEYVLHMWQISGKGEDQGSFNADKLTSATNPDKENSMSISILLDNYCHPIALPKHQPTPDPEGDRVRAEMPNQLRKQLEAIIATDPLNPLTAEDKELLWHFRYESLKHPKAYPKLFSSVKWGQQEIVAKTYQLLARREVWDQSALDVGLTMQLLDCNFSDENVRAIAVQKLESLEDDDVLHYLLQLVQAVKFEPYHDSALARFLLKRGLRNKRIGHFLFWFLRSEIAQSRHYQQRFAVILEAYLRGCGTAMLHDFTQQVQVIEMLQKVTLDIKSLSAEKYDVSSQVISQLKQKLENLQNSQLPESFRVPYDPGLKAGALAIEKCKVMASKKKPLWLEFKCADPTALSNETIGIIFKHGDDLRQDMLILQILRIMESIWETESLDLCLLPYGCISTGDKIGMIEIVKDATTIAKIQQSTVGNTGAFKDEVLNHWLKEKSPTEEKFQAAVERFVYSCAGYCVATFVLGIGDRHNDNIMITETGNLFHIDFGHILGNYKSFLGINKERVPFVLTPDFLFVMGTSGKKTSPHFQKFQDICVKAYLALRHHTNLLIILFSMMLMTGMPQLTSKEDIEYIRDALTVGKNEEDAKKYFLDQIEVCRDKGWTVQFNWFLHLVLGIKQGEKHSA
T2 sequence (Q12809 whole entry): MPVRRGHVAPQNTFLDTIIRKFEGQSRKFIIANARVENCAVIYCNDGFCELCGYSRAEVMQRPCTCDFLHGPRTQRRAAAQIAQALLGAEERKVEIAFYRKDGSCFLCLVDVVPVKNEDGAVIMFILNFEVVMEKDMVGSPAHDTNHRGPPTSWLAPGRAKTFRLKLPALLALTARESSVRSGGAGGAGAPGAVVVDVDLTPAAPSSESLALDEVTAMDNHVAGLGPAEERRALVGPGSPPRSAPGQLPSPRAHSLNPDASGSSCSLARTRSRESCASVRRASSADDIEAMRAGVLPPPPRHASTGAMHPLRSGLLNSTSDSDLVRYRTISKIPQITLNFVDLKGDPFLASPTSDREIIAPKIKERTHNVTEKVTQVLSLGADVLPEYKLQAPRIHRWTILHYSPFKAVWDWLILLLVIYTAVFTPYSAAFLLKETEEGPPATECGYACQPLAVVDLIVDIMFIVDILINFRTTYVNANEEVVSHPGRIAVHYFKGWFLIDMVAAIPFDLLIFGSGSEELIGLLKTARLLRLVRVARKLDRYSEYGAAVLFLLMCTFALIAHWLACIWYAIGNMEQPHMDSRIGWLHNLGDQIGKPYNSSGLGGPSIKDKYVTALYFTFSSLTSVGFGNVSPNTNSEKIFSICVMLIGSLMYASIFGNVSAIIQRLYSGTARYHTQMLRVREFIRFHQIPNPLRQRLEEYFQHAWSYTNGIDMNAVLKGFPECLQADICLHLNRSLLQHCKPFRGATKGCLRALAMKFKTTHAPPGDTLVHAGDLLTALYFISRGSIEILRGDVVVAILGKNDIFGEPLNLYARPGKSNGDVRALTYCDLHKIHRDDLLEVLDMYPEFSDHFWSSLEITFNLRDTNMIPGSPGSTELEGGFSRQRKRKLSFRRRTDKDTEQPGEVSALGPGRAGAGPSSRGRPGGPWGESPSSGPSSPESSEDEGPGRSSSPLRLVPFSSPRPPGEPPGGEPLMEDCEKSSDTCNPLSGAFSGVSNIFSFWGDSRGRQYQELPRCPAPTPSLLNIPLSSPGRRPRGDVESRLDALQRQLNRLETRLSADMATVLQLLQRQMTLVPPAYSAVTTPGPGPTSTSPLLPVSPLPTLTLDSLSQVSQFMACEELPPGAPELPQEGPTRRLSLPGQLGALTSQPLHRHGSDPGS
T4 sequence (P10635 whole entry): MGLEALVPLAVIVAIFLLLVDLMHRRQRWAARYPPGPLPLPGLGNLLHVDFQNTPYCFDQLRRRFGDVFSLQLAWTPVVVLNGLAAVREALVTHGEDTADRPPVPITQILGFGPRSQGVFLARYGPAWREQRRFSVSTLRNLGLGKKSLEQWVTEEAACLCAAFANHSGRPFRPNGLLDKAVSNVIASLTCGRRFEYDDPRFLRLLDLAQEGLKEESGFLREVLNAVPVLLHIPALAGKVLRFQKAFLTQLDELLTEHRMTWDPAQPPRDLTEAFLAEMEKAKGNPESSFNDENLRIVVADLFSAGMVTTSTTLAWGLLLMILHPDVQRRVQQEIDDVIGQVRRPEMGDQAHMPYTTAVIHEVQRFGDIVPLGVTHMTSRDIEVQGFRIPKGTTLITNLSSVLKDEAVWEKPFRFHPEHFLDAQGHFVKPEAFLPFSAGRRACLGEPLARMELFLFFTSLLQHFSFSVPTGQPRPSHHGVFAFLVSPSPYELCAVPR
T3 sequence (P08684 whole entry): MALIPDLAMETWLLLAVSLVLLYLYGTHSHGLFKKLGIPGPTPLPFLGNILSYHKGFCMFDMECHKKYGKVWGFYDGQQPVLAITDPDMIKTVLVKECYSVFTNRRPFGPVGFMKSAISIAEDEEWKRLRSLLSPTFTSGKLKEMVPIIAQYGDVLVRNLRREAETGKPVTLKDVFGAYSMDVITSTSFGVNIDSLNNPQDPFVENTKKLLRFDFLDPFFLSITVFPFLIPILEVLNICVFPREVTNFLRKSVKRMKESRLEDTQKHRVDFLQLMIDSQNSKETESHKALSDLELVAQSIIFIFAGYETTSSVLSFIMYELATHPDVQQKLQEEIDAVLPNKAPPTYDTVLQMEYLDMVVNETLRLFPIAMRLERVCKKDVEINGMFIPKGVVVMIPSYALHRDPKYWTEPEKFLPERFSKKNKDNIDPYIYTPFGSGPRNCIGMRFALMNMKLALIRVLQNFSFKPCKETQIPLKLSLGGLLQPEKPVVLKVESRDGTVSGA
T7 sequence (P11712 whole entry): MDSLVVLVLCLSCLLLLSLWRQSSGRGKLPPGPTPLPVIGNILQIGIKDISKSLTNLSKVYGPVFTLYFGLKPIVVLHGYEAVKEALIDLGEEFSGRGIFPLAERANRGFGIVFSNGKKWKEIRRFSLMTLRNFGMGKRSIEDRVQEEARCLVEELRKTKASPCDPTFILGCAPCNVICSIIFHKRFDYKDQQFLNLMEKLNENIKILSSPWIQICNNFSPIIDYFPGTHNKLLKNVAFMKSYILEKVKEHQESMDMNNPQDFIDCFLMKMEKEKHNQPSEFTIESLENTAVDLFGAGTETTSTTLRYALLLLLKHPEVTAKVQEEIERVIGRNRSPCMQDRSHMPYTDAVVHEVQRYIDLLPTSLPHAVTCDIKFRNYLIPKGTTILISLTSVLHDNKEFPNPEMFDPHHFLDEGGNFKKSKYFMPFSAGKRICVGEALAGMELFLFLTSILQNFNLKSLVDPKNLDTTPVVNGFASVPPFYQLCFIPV
T5 sequence (P33261 whole entry): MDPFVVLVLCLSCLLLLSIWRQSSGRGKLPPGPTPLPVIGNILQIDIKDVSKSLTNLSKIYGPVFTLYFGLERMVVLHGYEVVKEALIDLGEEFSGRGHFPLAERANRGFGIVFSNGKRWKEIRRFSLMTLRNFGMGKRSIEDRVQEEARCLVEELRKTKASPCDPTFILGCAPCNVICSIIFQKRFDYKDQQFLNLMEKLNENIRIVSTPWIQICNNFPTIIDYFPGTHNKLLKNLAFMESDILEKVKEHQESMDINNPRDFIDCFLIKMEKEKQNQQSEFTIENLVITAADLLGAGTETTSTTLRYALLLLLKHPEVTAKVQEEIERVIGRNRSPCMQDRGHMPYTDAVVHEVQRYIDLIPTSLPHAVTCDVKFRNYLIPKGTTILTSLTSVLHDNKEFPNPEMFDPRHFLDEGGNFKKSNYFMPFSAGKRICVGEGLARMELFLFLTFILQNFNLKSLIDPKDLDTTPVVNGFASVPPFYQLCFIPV

solubility at 16 h (Solubility test) [µM]	Structure (SMILES)	inhibition ratio for the maximum tail current (IKr) [3] [%]	inhibition at 50 µM (PI-3 kinase γ [2]; PI3Kγ) [%]	mutagenicity (FAT test) [4]	other results
> 50	COc1cc(N2CCc3nc(NC(=O)NCCC(=O)O)sc3C2)nc(OC)n1.Cl.Cl [Compound I-262]	1.6			pKi (PI-3 kinase γ [1]): 7.33; inhibition at 10 µM (PI-3 kinase γ [2]; PI3Kγ, compound at 10 μM): ≥ 95%; percentage of the test compound remained after reacting for 30 minutes (Metabolic stability test): 92.8%
> 50	CNC(=O)Nc1cc2n(n1)CCN2c1cc(Br)cc(C(=O)N2CCNCC2)c1 [Compound I-185]	8.3	≥ 95		pIC50 (CYP3A4): < 4.70; pIC50 (CYP2D6): < 4.70; pIC50 (CYP2C19): < 4.70; pIC50 (CYP1A2): < 4.70; pIC50 (CYP2C9): < 4.70
	COc1cc(N2CCc3nc(NC(=O)Nc4ccccc4)sc3C2)nc(OC)n1 [Compound I-203]		95	(−)	
	CNC(=O)Nc1nc2c(s1)CN(c1nc(OC)nc(OC)n1)CC2 [Compound I-327]			(−)	inhibition at 10 µM (PI-3 kinase γ [2]; compound at 10 μmol/L): 84%
	CNC(=O)Nc1cc2n(n1)CCN2c1cc(Br)cc(C(=O)N2CCCC2)c1 [Compound I-181]		≥ 95	(−)	
	CC(C)Oc1cc(C(=O)Nc2cc3n(n2)CCN3c2ccc3c(c2)CCN(C)C3=O)on1 [Compound I-403]			(−)	inhibition at 10 µM (PI-3 kinase γ [2]; compound at 10 μmol/L): ≥ 95%
> 50	CC(=O)Nc1nc2c(s1)CN(c1ccccc1)CC2 [Compound I-230]	9.1	81		percentage of the test compound remained after reacting for 30 minutes (Metabolic stability test): 87.9%
